The source of these data is patent publication US10441562B2, “Aromatic farnesyl compound and application thereof” (INSTITUTE OF MICROBIOLOGY, CHINESE ACADEMY OF SCIENCES, priority 2015, dated 2019).

pIC50: −log10 of the molar value. Where two headings read alike, the source gives them in different places.

What all share (assay type): biochemical
The target in test [1] is T1, HMG-CoA reductase (Homo sapiens, UniProt P04035).
T1 sequence (P04035 426-888 limits assumed): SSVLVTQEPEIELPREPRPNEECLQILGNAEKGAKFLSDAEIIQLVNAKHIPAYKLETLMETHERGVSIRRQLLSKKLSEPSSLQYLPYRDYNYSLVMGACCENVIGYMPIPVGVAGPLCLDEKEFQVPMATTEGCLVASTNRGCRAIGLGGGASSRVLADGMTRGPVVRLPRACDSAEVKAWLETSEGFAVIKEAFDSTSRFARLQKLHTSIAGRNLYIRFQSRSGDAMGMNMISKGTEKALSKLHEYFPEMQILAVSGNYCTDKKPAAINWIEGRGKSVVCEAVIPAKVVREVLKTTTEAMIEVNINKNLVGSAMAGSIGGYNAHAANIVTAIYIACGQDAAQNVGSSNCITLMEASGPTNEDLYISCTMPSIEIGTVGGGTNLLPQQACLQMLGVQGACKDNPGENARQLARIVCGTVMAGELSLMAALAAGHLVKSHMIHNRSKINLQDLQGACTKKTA
Kind of test: HMG-CoA reductase inhibitory activity test in vitro. How it is done:
Add 25 μL HMG-CoA reductase water solution (0.2 U/mL), 25 μL NADPH water solution (0.2 U/mL) and 24 μL phosphate buffer (50 mM, pH 7.0) into 1 μL different concentration of the above test solution. The mixed solution is standed for 10 min at room temperature, and then 25 μL HMG-CoA is added into the mixed solution. After the solution is incubated at 37∞ for 30 min and centrifuged at 5000 rpm for 5 minutes, 80 uL supernatant is added into 96-well plates and the absorbance is detected at 550 nm.
(§1) Repeat each of the above experiment groups for 3 times, and then average the results.

Test [2] deals with aldose reductase (Homo sapiens, UniProt P15121). The test is described as follows: aldose reductase inhibitory activity test in vitro. The protocol:
Experimental procedure: the following reagents are added into 96-well plates in sequence and the mixture ratios of different groups are as followings:
Test group: 10 μL compound solution+25 μL (0.1 mM) NADPH solution+25 μL PBS buffer solution+15 μL aldose reductase diluent
Blank group: 25 μL (0.1 mM) NADPH solution+35 μL PBS buffer solution+15 μL aldose reductase diluent
Background group: 25 μL (0.1 mM) NADPH solution+60 μL PBS buffer solution+15 μL aldose reductase diluent
After adding the reagents, the 96-well plate is standed for 10 min at room temperature to make the compound and the enzyme react completely. Add 25 μL 10 mM D, L glyceraldehyde solution which is used as substrate into the groups except for background group, and incubate the solution at 37 °C for 30 min. Then detect the optical density of each well at 340 nm.

Test [3] addresses T2, dipeptidyl peptidase-4 (Homo sapiens, UniProt P27487).
T2 construct: purchased
Kind of test: dipeptidyl peptidase-4 inhibitory activity test in vitro (DPP-4 inhibitor screening kit). The source says: The above compounds are detected by DPP-4 inhibitor screening kit.

Test [4] deals with T3, protein tyrosine phosphatase 1B (PTP-1B) (Homo sapiens, UniProt P18031).
T3 sequence (P18031 1-435): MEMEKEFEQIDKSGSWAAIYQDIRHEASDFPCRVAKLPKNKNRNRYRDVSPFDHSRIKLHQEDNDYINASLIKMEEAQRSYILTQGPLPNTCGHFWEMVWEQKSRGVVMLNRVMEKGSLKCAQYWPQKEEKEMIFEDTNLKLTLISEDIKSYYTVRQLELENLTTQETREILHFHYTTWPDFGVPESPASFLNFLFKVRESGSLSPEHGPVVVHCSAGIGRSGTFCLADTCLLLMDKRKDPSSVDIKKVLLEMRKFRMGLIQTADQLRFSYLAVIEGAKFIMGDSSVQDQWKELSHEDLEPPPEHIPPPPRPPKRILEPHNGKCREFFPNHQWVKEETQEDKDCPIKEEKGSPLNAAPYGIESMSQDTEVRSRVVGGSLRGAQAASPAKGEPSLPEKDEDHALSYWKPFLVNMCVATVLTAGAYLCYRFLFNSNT
Kind of test: PTP-1B inhibitory activity test in vitro. The protocol:
Experimental procedure: the following reagents are added into 96-well plates in sequence and the mixture ratios of different groups are as followings: Test group: 50 μL compound solution+50 μL 170 μg/mL PTP-1B solution […] Blank group: 50 μL buffer solution+50 μL 170 μg/mL PTP-1B solution Background group: 50 μL compound solution+50 μL buffer solution After adding the reagents, the 96-well plate is […] for 10 min at room temperature to make the compound and the enzyme react completely. Add 50 μL 1 mM pNPP solution which is used as substrate and incubate the mixed solution at 37 °C for 30 min. Then add 50 μL 3M NaOH into each well of the plate to stop the reaction and the optical density is detected at […].

Test [5] deals with T4, α-glucosidase (Saccharomyces cerevisiae, UniProt P53341).
T4 construct: purchased Sigma Corporation G5003
T4 sequence (P53341 whole entry): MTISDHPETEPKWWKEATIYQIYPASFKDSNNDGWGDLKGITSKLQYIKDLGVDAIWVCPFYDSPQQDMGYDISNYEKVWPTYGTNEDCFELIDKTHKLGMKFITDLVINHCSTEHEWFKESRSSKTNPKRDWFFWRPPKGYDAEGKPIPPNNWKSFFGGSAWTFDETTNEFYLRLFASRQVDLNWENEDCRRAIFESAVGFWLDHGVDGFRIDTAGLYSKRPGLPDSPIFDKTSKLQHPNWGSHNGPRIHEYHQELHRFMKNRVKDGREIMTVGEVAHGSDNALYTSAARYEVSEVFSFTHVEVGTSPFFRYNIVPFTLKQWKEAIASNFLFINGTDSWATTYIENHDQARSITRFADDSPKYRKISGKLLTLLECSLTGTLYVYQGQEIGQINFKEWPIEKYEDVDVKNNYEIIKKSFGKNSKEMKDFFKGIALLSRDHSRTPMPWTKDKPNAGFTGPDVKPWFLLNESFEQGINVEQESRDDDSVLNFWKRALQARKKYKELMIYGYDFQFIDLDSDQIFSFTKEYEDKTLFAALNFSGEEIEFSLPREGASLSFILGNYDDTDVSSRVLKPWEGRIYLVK
Kind of test: α-glucosidase inhibitory activity test in vitro. How it is done:
Add 25 μL α-glucosidase water solution (0.2 U/mL) and 175 μL phosphate buffer (50 mM, pH 7.0) into 25 μL different concentration of the above test solutions. The mixed solution is standed for 10 min at room temperature, and then 25 μL 4-nitrophenyl-α-D-glucopyranoside water solution (2.5 mM) is added into the mixed solution. After the solution is incubated at 37 °C for 30 min and centrifuged at 5000 rpm for 5 minutes, 150 uL supernatant is added into 96-well plates and the absorbance is detected at 405 nm.
Blank group: the test solution is replaced by 25 μL phosphate buffer (50 mM, pH 7.0); blank control group: the test solution is replaced by 25 μL phosphate buffer (50 mM, pH 7.0), meanwhile α-glucosidase water solution is replaced by 25 μL phosphate buffer (50 mM, pH 7.0); sample control group: α-glucosidase water solution is replaced by 25 μL phosphate buffer (50 mM, pH 7.0).
as §1
IC50=[CL(IH−50)+CH(50−IL)]/(IH−IL) CL: low concentration value; CH: high concentration value; IH: inhibition rate in high concentration; IL: inhibition rate in low concentration

Where [6] appears, read: read-out: α-glucosidase inhibitory activity (IC50).

T2 sequence (P27487 whole entry, species assumed): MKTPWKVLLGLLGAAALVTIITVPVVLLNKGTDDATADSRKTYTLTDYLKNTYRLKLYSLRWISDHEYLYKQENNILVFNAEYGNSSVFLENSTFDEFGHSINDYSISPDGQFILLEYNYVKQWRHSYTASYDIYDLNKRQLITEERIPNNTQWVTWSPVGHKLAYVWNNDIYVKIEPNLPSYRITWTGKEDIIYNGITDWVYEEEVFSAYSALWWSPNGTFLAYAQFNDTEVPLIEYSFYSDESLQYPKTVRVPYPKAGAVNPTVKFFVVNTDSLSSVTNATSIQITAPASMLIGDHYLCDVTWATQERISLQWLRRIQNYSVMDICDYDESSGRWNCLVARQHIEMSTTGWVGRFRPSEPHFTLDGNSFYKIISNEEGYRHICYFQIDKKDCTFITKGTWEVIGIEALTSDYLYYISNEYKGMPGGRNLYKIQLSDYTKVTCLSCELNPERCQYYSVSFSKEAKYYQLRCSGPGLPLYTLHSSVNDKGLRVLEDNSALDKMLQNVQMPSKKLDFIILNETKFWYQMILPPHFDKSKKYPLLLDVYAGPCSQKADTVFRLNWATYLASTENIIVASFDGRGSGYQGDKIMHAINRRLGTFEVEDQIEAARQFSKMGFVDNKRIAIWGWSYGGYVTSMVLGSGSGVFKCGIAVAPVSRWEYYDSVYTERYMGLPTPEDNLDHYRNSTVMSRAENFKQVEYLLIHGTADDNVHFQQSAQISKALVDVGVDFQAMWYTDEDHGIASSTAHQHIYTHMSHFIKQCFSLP

What is called pIC50 is the IC50 on a negative log10 scale, so that one unit is a factor of ten. Regarding `CC(C)=CCC/C(C)=C/CCC1=C[C@@H](c2ccccc2O)OC1=O` [S19, (S,E)-3-(4,8-dimethylnona-3,7-dien-1-yl)-5-(2-hydroxyphenyl)furan-2(5H)-one], the pIC50 in test [1] was 5.26; in test [2] it was 4.60; in test [3] it was 4.69; in test [4], 4.94; in test [5] (setting [6]), 6.28.
On to `CC(C)=CCC/C(C)=C/CCC1=C[C@@H](c2ccccc2[N+](=O)[O-])OC1=O` [S20, (S,E)-3-(4,8-dimethylnona-3,7-dien-1-yl)-5-(2-nitrophenyl)furan-2(5H)-one], for which the pIC50 in test [1] was 4.86; in test [2] it was 5.02; in test [3], 4.68; in test [4], 5.33; in test [5] (setting [6]), 6.68.
The like results for `CC(C)=CCC/C(C)=C/CCC1=C[C@@H](c2ccc(C)cc2)OC1=O` [S21, (S,E)-3-(4,8-dimethylnona-3,7-dien-1-yl)-5-(p-tolyl)furan-2(5H)-one] were, in that order, 4.90, 4.26, 4.78, 5.24 and 5.99.
The like results for `CCc1ccc([C@@H]2C=C(CC/C=C(\C)CCC=C(C)C)C(=O)O2)cc1` [S22, (S,E)-3-(4,8-dimethylnona-3,7-dien-1-yl)-5-(4-ethylphenyl)furan-2(5H)-one] were, in that order, 5.38, 4.25, 5.02, 4.79 and 6.04.
Take `CC(C)=CCC/C(C)=C/CCC1=C[C@@H](c2ccc(C(C)C)cc2)OC1=O` [S23, (S,E)-3-(4,8-dimethylnona-3,7-dien-1-yl)-5-(4-isopropylphenyl)furan-2(5H)-one]: the pIC50 is 4.06 in test [1]; 4.03 in test [2]; 5.06 in test [3]; 5.02 in test [4]; 4.31 in test [5] (setting [6]).
On the same counts, the results for `CC(C)=CCC/C(C)=C/CCC1=C[C@@H](c2ccc(C(C)(C)C)cc2)OC1=O` [S24, (S,E)-5-(4-(tert-butyl)phenyl)-3-(4,8-dimethylnona-3,7-dien-1-yl)furan-2 (5H)-one] are 4.82, 5.92, 4.80, 4.75 and 6.64.
`COc1ccc([C@@H]2C=C(CC/C=C(\C)CCC=C(C)C)C(=O)O2)cc1` [S25, (S,E)-3-(4,8-dimethylnona-3,7-dien-1-yl)-5-(4-methoxyphenyl)furan-2(5H)-one]: the pIC50 is 5.82 in test [1]; 3.99 in test [2]; 4.73 in test [3]; 4.78 in test [4]; 4.28 in test [5] (setting [6]).
The like results for `CC(C)=CCC/C(C)=C/CCC1=C[C@@H](c2ccc([N+](=O)[O-])cc2)OC1=O` [S26, (S,E)-3-(4,8-dimethylnona-3,7-dien-1-yl)-5-(4-nitrophenyl)furan-2(5H)-one] were, in that order, 5.12, 5.28, 4.97, 5.01 and 4.52.
Take `COc1ccc(OC)c([C@@H]2C=C(CC/C=C(\C)CCC=C(C)C)C(=O)O2)c1` [S27, (S,E)-5-(2,5-dimethoxyphenyl)-3-(4,8-dimethylnona-3,7-dien-1-yl)furan-2(5H)-one]: the pIC50 in test [1] is 5.36; in test [2] it was 4.60; in test [3] it was 5.07; in test [4], 4.91; in test [5] (setting [6]), 4.82.
The like results for `CC(C)=CCC/C(C)=C/CCC1=C[C@@H](c2c(F)cccc2F)OC1=O` [S29, (S,E)-5-(2,6-difluorophenyl)-3-(4,8-dimethylnona-3,7-dien-1-yl)furan-2(5H)-one] were, in that order, 4.77, 4.47, 4.63, 5.36 and 5.40.
The like results for `CC(C)=CCC/C(C)=C/CCC1=C[C@@H](c2cc(F)c(F)c(F)c2)OC1=O` [S30, (S,E)-3-(4,8-dimethylnona-3,7-dien-1-yl)-5-(3,4,5-trifluorophenyl)furan-2(5H)-one] were, in that order, 4.62, 4.27, 4.94, 4.68 and 5.90.
For `COC1(c2cc(O)ccc2O)C=C(CC/C=C(\C)CCC=C(C)C)C(=O)O1` (stereo not drawn) [S31, (E)-5-(2,5-dihydroxyphenyl)-3-(4,8-dimethylnona-3,7-dien-1-yl)-5-meth oxyfuran-2(5H)-one], the pIC50 was 4.49 in test [1]; 4.06 in test [2]; 4.81 in test [3]; 4.81 in test [4]; 5.49 in test [5].
As to `CC(C)=CCC/C(C)=C/CC/C(=C/C(=O)c1cc(O)ccc1O)C(=O)O` [S32, (2Z,5E)-2-(2-(2,5-dihydroxyphenyl)-2-oxoethylidene)-6,10-dimethylundeca-5,9-dienoic acid], the pIC50 in test [1] is 5.27; in test [2] it was 4.46; in test [3], 4.67; in test [4] it was 5.12; in test [5] (setting [6]), 5.27.
Turning to `C/C(=C\CC/C(C)=C/CC/C(=C/Cc1cc(O)ccc1O)C(=O)O)CO` [S33, (2Z,5E,9E)-2-(2-(2,5-dihydroxyphenyl)ethylidene)-11-hydroxy-6,10-dimethylundeca-5,9-dienoic acid], the pIC50 was 4.48 in test [1]; 4.64 in test [2]; 4.73 in test [3]; 5.35 in test [4]; 4.91 in test [5].
Take `CC(C)=CCC/C(C)=C/CC/C(=C/Cc1cc(O)ccc1O)C(=O)O` [S34, (2Z,5E)-2-(2-(2,5-dihydroxyphenyl)ethylidene)-6,10-dimethylundeca-5,9-dienoic acid]: the pIC50 in test [1] is 4.90; in test [2] it was 5.06; in test [3], 4.82; in test [4] it was 4.89; in test [5] (setting [6]) it was 6.01.
